Experimental data: patent US20240360178A1, “MACROCYCLIC IMMUNOMODULATORS” (Bristol-Myers Squibb Company, priority 2021, published 2024)
Positions of bridges follow the written chain, without caps; N, C: chain ends. Non-standard residues stand in square brackets, D forms with d. Residues, ends and D or L forms follow the SMILES beside them. ξ: configuration not given here. Phe(3,4,5-F3) = N[C@@H](Cc1cc(F)c(F)c(F)c1)C(=O)O; Phe(4-CH2NH2) = NCc1ccc(C[C@H](N)C(=O)O)cc1; Bip = N[C@@H](Cc1ccc(-c2ccccc2)cc1)C(=O)O; Phe(3-OMe) = COc1cccc(C[C@H](N)C(=O)O)c1; Ala(cPent) = N[C@@H](CC1CCCC1)C(=O)O; NMeF = CN[C@@H](Cc1ccccc1)C(=O)O; 4Pal = N[C@@H](Cc1ccncc1)C(=O)O; Thr(3ξ) = CC(O)[C@H](N)C(=O)O; NMeA = CN[C@@H](C)C(=O)O; Nle = CCCC[C@H](N)C(=O)O; Dab = NCC[C@H](N)C(=O)O; Sar = CNCC(=O)O

Target: T1, human PD-1 (Jurkat-PD-1 cells) / PE-labeled human PD-L1-Ig (Homo sapiens, UniProt Q15116)
T1 construct: expressed in transfected cells; host or cells: Jurkat cell line over-expressing human PD-1
T1 sequence (Q15116 25-288): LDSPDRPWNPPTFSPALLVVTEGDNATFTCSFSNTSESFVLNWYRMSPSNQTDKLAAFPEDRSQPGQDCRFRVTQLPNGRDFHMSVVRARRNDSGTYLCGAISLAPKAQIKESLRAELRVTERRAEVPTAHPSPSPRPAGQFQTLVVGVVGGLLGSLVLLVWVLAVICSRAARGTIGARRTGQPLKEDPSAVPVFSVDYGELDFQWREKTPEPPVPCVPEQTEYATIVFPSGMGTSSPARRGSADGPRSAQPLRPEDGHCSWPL
Experiment: Jurkat-PD-1 Cell Binding High-Content Screening Assay (CBA); Jurkat hPD1-PDL1 assay
Conditions: Jurkat cell line over-expressing human PD-1; PE-labeled PD-L1-Ig 20 nM final; compound incubated 2 hours at 37° C.; read-out: Jurkat HPD1-PDL1 IC50
Method in brief: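 Cell binding by imaging: Jurkat line stably over-expressing human PD-1, compound pre-exposure 2 h at 37° C, PE-conjugated PD-L1-Ig 20 nM final, medium DMEM containing 10% FCS.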

SMILES | IC50
CCCC[C@@H]1NC(=O)CSC[C@@H](C(=O)NCC(N)=O)NC(=O)[C@H](CO)NC(=O)[C@H](C(C)C)NC(=O)[C@H](CC(C)C)NC(=O)[C@H](CC(N)=O)NC(=O)CN(C)C(=O)[C@H](C)N(C)C(=O)[C@H](C(C)C)NC(=O)[C@H](Cc2ccc(-c3ccccc3)cc2)NC(=O)[C@H](CC(C)C)NC(=O)[C@H](Cc2c[nH]c3ccccc23)NC(=O)[C@H](CC(=O)O)NC(=O)[C@H](Cc2ccc(O)cc2)NC1=O [Example 1100] ({CH2CO}-[Nle]YDWL[Bip]V[NMeA][Sar]NLVSCG-NH2; thioether N-14) | 0.31 µM
CC(C)C[C@@H]1NC(=O)[C@H](Cc2c[nH]c3ccccc23)NC(=O)[C@H](CC(=O)O)NC(=O)[C@H](Cc2ccc(O)cc2)NC(=O)[C@H](Cc2ccccc2)NC(=O)CSC[C@@H](C(=O)N[C@@H](CCN)C(N)=O)NC(=O)[C@H](CO)NC(=O)[C@H](C(C)C)NC(=O)[C@H](CC(C)C)NC(=O)[C@H](CC(N)=O)NC(=O)CN(C)C(=O)[C@H](C)N(C)C(=O)[C@H](C(C)C)NC(=O)[C@H](Cc2ccc(-c3ccccc3)cc2)NC1=O [Example 1103] ({CH2CO}-FYDWL[Bip]V[NMeA][Sar]NLVSC[Dab]-NH2; thioether N-14) | 0.31 µM
CC(C)C[C@@H]1NC(=O)[C@H](CCCNC(=N)N)NC(=O)[C@H](Cc2ccccc2)N(C)C(=O)[C@H](C)N(C)C(=O)[C@H](CCCNC(=N)N)NC(=O)[C@H](Cc2ccc(-c3ccccc3)cc2)NC(=O)[C@H](C(C)C)NC(=O)[C@H](Cc2c[nH]c3ccccc23)NC(=O)[C@H](CC(=O)O)NC(=O)[C@H](Cc2ccc(O)cc2)NC(=O)[C@H](Cc2ccccc2)NC(=O)CSC[C@@H](C(=O)N[C@@H](CCC(=O)O)C(N)=O)NC(=O)[C@H](CO)NC(=O)[C@H](C(C)C)NC1=O [Example 1105] ({CH2CO}-FYDWV[Bip]R[NMeA][NMeF]RLVSCE-NH2; thioether N-14) | 0.33 µM
CC(C)C[C@@H]1NC(=O)[C@H](Cc2c[nH]c3ccccc23)NC(=O)[C@H](CC(=O)O)NC(=O)[C@H](Cc2ccc(O)cc2)NC(=O)[C@H](Cc2ccncc2)NC(=O)CSC[C@@H](C(=O)NCC(N)=O)NC(=O)[C@H](CO)NC(=O)[C@H](C(C)C)NC(=O)[C@H](CC(C)C)NC(=O)[C@H](CC(N)=O)NC(=O)CN(C)C(=O)[C@H](C)N(C)C(=O)[C@H](C(C)C)NC(=O)[C@H](Cc2ccc(-c3ccccc3)cc2)NC1=O [Example 1107] ({CH2CO}-[4Pal]YDWL[Bip]V[NMeA][Sar]NLVSCG-NH2; thioether N-14) | 0.34 µM
CC(C)C[C@@H]1NC(=O)[C@H](Cc2c[nH]c3ccccc23)NC(=O)[C@H](CC(=O)O)NC(=O)[C@H](Cc2ccc(O)cc2)NC(=O)[C@H](Cc2ccccc2)NC(=O)CSC[C@@H](C(=O)N[C@@H](C)C(N)=O)NC(=O)[C@H](CO)NC(=O)[C@H](C(C)C)NC(=O)[C@H](CC(C)C)NC(=O)[C@H](CCC(=O)O)NC(=O)CN(C)C(=O)[C@H](C)N(C)C(=O)[C@H](C(C)C)NC(=O)[C@H](Cc2ccc(-c3ccccc3)cc2)NC1=O [Example 1108] ({CH2CO}-FYDWL[Bip]V[NMeA][Sar]ELVSCA-NH2; thioether N-14) | 0.34 µM

Next, values leading:

IC50 | SMILES
0.31 µM | CC(C)C[C@@H]1NC(=O)[C@H](Cc2c[nH]c3ccccc23)NC(=O)[C@H](CC(=O)O)NC(=O)[C@H](Cc2ccc(O)cc2)NC(=O)[C@H](Cc2cc(F)c(F)c(F)c2)NC(=O)CSC[C@@H](C(=O)NCC(N)=O)NC(=O)[C@H](CO)NC(=O)[C@H](C(C)C)NC(=O)[C@H](CC(C)C)NC(=O)[C@H](CC(N)=O)NC(=O)CN(C)C(=O)[C@H](C)N(C)C(=O)[C@H](C(C)C)NC(=O)[C@H](Cc2ccc(-c3ccccc3)cc2)NC1=O [Example 1098] ({CH2CO}-[Phe(3,4,5-F3)]YDWL[Bip]V[NMeA][Sar]NLVSCG-NH2; thioether N-14)
0.31 µM | CC(C)C[C@@H]1NC(=O)[C@H](Cc2c[nH]c3ccccc23)NC(=O)[C@H](CC(=O)O)NC(=O)[C@H](Cc2ccc(O)cc2)NC(=O)[C@H](Cc2ccccc2)NC(=O)CSC[C@@H](C(=O)N[C@@H](C)C(N)=O)NC(=O)[C@H](CO)NC(=O)[C@H](C(C)C)NC(=O)[C@H](CC(C)C)NC(=O)[C@H](CCCCN)NC(=O)CN(C)C(=O)[C@H](C)N(C)C(=O)[C@H](C(C)C)NC(=O)[C@H](Cc2ccc(-c3ccccc3)cc2)NC1=O [Example 1099] ({CH2CO}-FYDWL[Bip]V[NMeA][Sar]KLVSCA-NH2; thioether N-14)
0.3 µM | CC(C)C[C@@H]1NC(=O)[C@H](Cc2c[nH]c3ccccc23)NC(=O)[C@H](CC(=O)O)NC(=O)[C@H](Cc2ccc(CN)cc2)NC(=O)[C@H](Cc2ccccc2)NC(=O)CSC[C@@H](C(=O)N[C@@H](C)C(N)=O)NC(=O)[C@H](CO)NC(=O)[C@H](C(C)C)NC(=O)[C@H](CC(C)C)NC(=O)[C@H](CC(N)=O)NC(=O)CN(C)C(=O)[C@H](C)N(C)C(=O)[C@H](C(C)C)NC(=O)[C@H](Cc2ccc(-c3ccccc3)cc2)NC1=O [Example 1101] ({CH2CO}-F[Phe(4-CH2NH2)]DWL[Bip]V[NMeA][Sar]NLVSCA-NH2; thioether N-14)
0.31 µM | CC(C)C[C@@H]1NC(=O)[C@H](Cc2c[nH]c3ccccc23)NC(=O)[C@H](CC(=O)O)NC(=O)[C@H](Cc2ccc(O)cc2)NC(=O)[C@H](Cc2ccccc2)NC(=O)CSC[C@@H](C(=O)N[C@@H](C)C(N)=O)NC(=O)[C@H](CO)NC(=O)[C@H](C(C)C)NC(=O)[C@H](CC2CCCC2)NC(=O)[C@H](CC(N)=O)NC(=O)CN(C)C(=O)[C@H](C)N(C)C(=O)[C@H](C(C)C)NC(=O)[C@H](Cc2ccc(-c3ccccc3)cc2)NC1=O [Example 1102] ({CH2CO}-FYDWL[Bip]V[NMeA][Sar]N[Ala(cPent)]VSCA-NH2; thioether N-14)
0.32 µM | CC(C)C[C@@H]1NC(=O)[C@H](CC(N)=O)NC(=O)CN(C)C(=O)[C@H](C)N(C)C(=O)[C@H](C(C)C)NC(=O)[C@H](Cc2ccc(-c3ccccc3)cc2)NC(=O)[C@H](CC(C)C)NC(=O)[C@H](Cc2c[nH]c3ccccc23)NC(=O)[C@H](CC(=O)O)NC(=O)[C@H](Cc2ccc(O)cc2)NC(=O)[C@H](Cc2ccccc2)NC(=O)CSC[C@@H](C(=O)NCC(N)=O)NC(=O)[C@H](CO)NC(=O)[C@H](CCCCN)NC1=O [Example 1104] ({CH2CO}-FYDWL[Bip]V[NMeA][Sar]NLKSCG-NH2; thioether N-14)
0.33 µM | COc1cccc(C[C@@H]2NC(=O)[C@H](CC(=O)O)NC(=O)[C@H](Cc3ccc(O)cc3)NC(=O)[C@H](Cc3ccccc3)NC(=O)CSC[C@@H](C(=O)N[C@@H](C)C(N)=O)NC(=O)[C@H](CO)NC(=O)[C@H](C(C)C)NC(=O)[C@H](CC(C)C)NC(=O)[C@H](CC(N)=O)NC(=O)CN(C)C(=O)[C@H](C)N(C)C(=O)[C@H](C(C)C)NC(=O)[C@H](Cc3ccc(-c4ccccc4)cc3)NC(=O)[C@H](CC(C)C)NC2=O)c1 [Example 1106] ({CH2CO}-FYD[Phe(3-OMe)]L[Bip]V[NMeA][Sar]NLVSCA-NH2; thioether N-14)
0.35 µM | CC(C)C[C@@H]1NC(=O)[C@H](Cc2c[nH]c3ccccc23)NC(=O)[C@H](CC(=O)O)NC(=O)[C@H](Cc2ccc(O)cc2)NC(=O)[C@H](Cc2ccccc2)NC(=O)CSC[C@@H](C(=O)NCC(N)=O)NC(=O)[C@H](C(C)O)NC(=O)[C@H](C(C)C)NC(=O)[C@H](CC(C)C)NC(=O)[C@H](CC(N)=O)NC(=O)CN(C)C(=O)[C@H](C)N(C)C(=O)[C@H](C(C)C)NC(=O)[C@H](Cc2ccc(-c3ccccc3)cc2)NC1=O (stereo partly drawn) [Example 1109] ({CH2CO}-FYDWL[Bip]V[NMeA][Sar]NLV[Thr(3ξ)]CG-NH2; thioether N-14)
